Results on eleven molecules are retold here after patent US20200345745A1 (University of Leicester, priority 2017, published 2020).

For one experiment, the system named is KMO. The note with it: literature value; read-out: IC50 (KMO inhibition); cited from earlier work.
Experiment [1] deals with recombinant P. fluorescens kynurenine 3-monooxygenase (PfKMO) (Pseudomonas fluorescens, UniProt Q84HF5, C252S/C461S). The experiment in a line: biochemical. As for the experimental part:
Protein was expressed by growing transformed cells in auto induction LB medium (Fermentas) containing 100 μg/mL for 24 hours at 22° C. […] The cell lysate was centrifuged at 180,000 g for 1 hour at 4° C. to remove cell debris. The soluble cell lysate was loaded onto Q-sepharose column equilibrated with anion exchange buffer (20 mM HEPES pH 7.5, 1 mM DTT with 10 mM NaCl) and bound protein was eluted with a gradient (5 column volumes) of increasing NaCl concentration from 50 to 100 mM in anion exchange buffer. Fractions containing KMO were pooled and precipitated in 50% saturated ammonium sulphate by adding precipitation buffer (20 mM HEPES pH 7.5, 3 M ammonium sulphate, 1 mM DTT). The precipitated protein was pelleted by centrifugation at 12,000 g for 20 min, resuspended in a small volume of size exclusion buffer (20 mM HEPES pH 7.0, 150 mM sodium acetate, 1 mM DTT) and passed down a Superdex 75 column. Pure PfKMO was pooled and stored at −80° C.
(§1) KMO activity was measured in the presence of a range of compound concentrations by monitoring the consumption of NADPH at 340 nm upon addition of enzyme via a Cary 50 UV-Vis spectrophotometer (Agilent Technologies). All measurements were performed in triplicate. The IC50 values for each compound were obtained by plotting the percentage inhibition versus the inhibitor concentration and fitting to the Morrison equation using Origin 9.0 software (OriginLab, Northampton, Mass.).

Experiment [2] has as its target T1, recombinant Homo Sapiens kynurenine 3-monooxygenase (HsKMO) (Homo sapiens, UniProt O15229).
T1 construct: The gene encoding full-length human KMO was synthesized; glutathione S-transferase (GST; vector pAcGHLT-A); made in house; host or cells: Hi5 insect cells (baculovirus)
The experiment in a line: Inhibition of recombinant Homo sapiens KMO (NADPH consumption at 340 nm). Format: biochemical. The note with it: 0.5 μM HsKMO, L-Kyn 250 μM, NADPH 200 μM, pH 8.0, triplicate. The protocol:
The gene encoding full-length human KMO was synthesized (GeneScript) and codon optimized for overexpression in […]. The gene was subcloned into the baculovirus transfer vector pAcGHLT-A-glutathione S-transferase as a Ndel-EcoRI fragment and transfected into Hi5 cells along with linearized baculovirus using the following sense and antisense primers: […]
Cultured cells were lysed in 20 mM potassium phosphate buffer, pH 7.5, 10% glycerol, 0.5% n-dodecyl β-D-maltoside (DDM), 150 mM NaCl, 7 mM 2-mercaptoethanol and 50 μM FAD supplemented with protease inhibitors (Sigma-Aldrich). Soluble lysate was incubated with 3 ml pre-equilibrated glutathione uniflow resin (Clontech). […] Fractions (0.5 ml) were eluted with buffer C (buffer B+33 mM glutathione) and fractions containing KMO pooled, concentrated and loaded onto a Superdex 200 (10/30) size-exclusion chromatography column. Pure KMO was pooled and stored at −80° C.
as §1

Like-named read-outs stand apart in the source and are kept apart here.

T1 sequence (O15229 whole entry): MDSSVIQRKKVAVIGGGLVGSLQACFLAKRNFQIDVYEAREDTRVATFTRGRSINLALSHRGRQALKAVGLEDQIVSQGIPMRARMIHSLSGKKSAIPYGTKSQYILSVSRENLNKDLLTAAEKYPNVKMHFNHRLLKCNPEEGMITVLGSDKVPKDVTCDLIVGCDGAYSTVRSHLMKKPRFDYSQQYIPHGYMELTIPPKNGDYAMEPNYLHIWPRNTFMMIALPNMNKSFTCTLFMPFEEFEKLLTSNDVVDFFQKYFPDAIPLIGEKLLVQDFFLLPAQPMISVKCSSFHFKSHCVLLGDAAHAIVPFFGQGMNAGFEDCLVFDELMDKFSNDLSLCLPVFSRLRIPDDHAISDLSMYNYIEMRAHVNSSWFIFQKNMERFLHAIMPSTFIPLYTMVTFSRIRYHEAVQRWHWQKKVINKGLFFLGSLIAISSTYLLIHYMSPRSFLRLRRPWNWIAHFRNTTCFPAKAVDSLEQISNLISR
Chain of recombinant P. fluorescens kynurenine 3-monooxygenase (PfKMO) (Q84HF5 whole entry C252S/C461S): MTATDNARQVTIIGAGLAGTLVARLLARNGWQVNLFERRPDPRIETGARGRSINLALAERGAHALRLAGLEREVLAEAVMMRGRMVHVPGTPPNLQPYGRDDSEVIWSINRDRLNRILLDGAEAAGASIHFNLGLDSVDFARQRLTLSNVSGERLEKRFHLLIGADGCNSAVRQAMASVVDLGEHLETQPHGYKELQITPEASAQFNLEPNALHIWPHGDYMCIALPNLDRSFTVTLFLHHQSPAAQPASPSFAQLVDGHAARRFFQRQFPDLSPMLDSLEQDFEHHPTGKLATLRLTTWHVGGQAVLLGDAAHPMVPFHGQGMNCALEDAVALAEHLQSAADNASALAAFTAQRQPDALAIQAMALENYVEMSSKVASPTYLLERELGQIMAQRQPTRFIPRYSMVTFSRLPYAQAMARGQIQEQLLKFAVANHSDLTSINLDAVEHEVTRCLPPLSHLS

As a reminder, the IC50 is the midpoint of a concentration-inhibition curve. With `NC(CC(=O)c1ccc(Cl)c(Cl)c1)C(=O)O` (racemic) [(R,S)-3,4-dichlorobenzoylalanine], in the experiment with KMO, the IC50 was 900 nM.
Turning to `COC(=O)CN1C(=O)COc2cc(C)c(Cl)c(C)c21` [Example 1, methyl 2-(6-chloro-5,7-dimethyl-3-oxo-1,4-benzoxazin-4-yl)acetate], the 50% inhibitory concentration (IC50) in experiment [1] and in experiment [2] was greater than 100 µM each time.
On to `CCOC(=O)CN1C(=O)COc2cc(C)c(Cl)c(C)c21` [Example 2, ethyl 2-(6-chloro-5,7-dimethyl-3-oxo-1,4-benzoxazin-4-yl)acetate], for which the IC50 in experiment [1] and in experiment [2] was greater than 100 µM throughout.
Turning to `Cc1cc2c(c(C)c1Cl)N(CC(=O)OC(C)C)C(=O)CO2` [Example 3, isopropyl 2-(6-chloro-5,7-dimethyl-3-oxo-1,4-benzoxazin-4-yl)acetate], the IC50 in experiment [1] and in experiment [2] was greater than 100 µM each time.
For `Cc1cc2c(c(C)c1Cl)N(CC(=O)OC(C)(C)C)C(=O)CO2` [Example 4, tert-butyl 2-(6-chloro-5,7-dimethyl-3-oxo-1,4-benzoxazin-4-yl)acetate], the IC50 in experiment [1] and in experiment [2] was greater than 100 µM throughout.
For `Cc1cc2c(c(C)c1Cl)N(CC(=O)N(C)C)C(=O)CO2` [Example 6, 2-(6-chloro-5,7-dimethyl-3-oxo-1,4-benzoxazin-4-yl)-N,N-dimethyl-acetamide], the IC50 in experiment [1] and in experiment [2] was greater than 100 µM throughout.
With `CNC(=O)CN1C(=O)COc2cc(C)c(Cl)c(C)c21` [Example 7], the IC50 in experiment [1] and in experiment [2] was greater than 100 µM each time.
With `Cc1cc2c(c(C)c1Cl)N(CC(N)=O)C(=O)CO2` [Example 8, 2-(6-chloro-5,7-dimethyl-3-oxo-1,4-benzoxazin-4-yl)acetamide], the IC50 in experiment [1] and in experiment [2] was greater than 100 µM in each case.
Consider `Cc1cc2c(c(C)c1Cl)N(Cc1nn[nH]n1)C(=O)CO2` [Example 9, 6-chloro-5,7-dimethyl-4-(2H-tetrazol-5-ylmethyl)-1,4-benzoxazin-3-one], for which the IC50 is 17 µM in experiment [1] (read-out: IC50 for PfKMO inhibition, 0.1 μM PfKMO, L-Kyn 250 μM, NADPH 200 μM, pH 7.5, triplicate) and 1.28 µM in experiment [2].
As to `O=C(O)CCn1c(=O)oc2cc(Cl)c(Cl)cc21` [GSK180], the IC50 in the experiment on KMO is […].
In the case of `O=C(O)[C@H]1C[C@@H]1C(=O)c1ccc(Cl)c(Cl)c1` [UPF-648], in the experiment on KMO, the concentration for half-maximal inhibition (IC50) is 20 nM.
